Source: patent publication US20240108740A1, “THERAPEUTIC COMPOSITIONS INCLUDING SPN10 AND USES THEREOF” (Stealth BioTherapeutics Inc., priority 2022, published 2024)
Residues, ends and D or L forms follow the SMILES beside them.

Legend:
[1] = tested on: Sprague-Dawley rats; experiment: Example 5: unilateral ureteral obstruction (UUO), 14 days; assay type: in vivo, rat
Description: UUO will be induced in Sprague-Dawley rats. The rats will be treated with saline (i.p., n=6), peptide conjugates (1 mg/kg i.p., n=6), aromatic-cationic peptides (e.g., an equivalent molar dose of aromatic-cationic peptide based on the concentration of the aromatic-cationic peptide administered in the peptide conjugate treatment group), SPN10(s) (e.g., an equivalent molar dose of SPN10 based on the concentration of SPN10 administered in the peptide conjugate treatment group), or SPN10(s) in combination with aromatic-cationic peptides (e.g., an equivalent molar dose of SPN10 based on the concentration of SPN10 administered in the peptide conjugate treatment group and an equivalent molar dose of aromatic-cationic peptide based on the concentration of aromatic-cationic peptide administered in the peptide conjugate treatment group) one day prior to induction of UUO, and once daily for 14 days after UUO induction. Rats will be sacrificed and the kidneys removed, embedded in paraffin, and sectioned. The sections will be treated with an anti-CD36 polyclonal IgG (Santa Cruz, sc-9154; diluted 1:100 with blocking serum) at room temperature for 1.5 hours. The slides will then be incubated with the second antibody conjugated with biotin (anti-rabbit IgG-B1; ABC kit, PK-6101) at room temperature for 30 min. The slides will then be treated with avidin, developed with DAB and counterstained with 10% hematoxylin. The contralateral unobstructed kidney will serve as the control for each animal.
Rats will then be sacrificed, kidneys removed, embedded in paraffin and sectioned. Slides will be incubated with anti-HNE rabbit IgG and a biotin-linked anti-rabbit IgG will be used as secondary antibody. The slides will be developed with DAB. Lipid peroxidation, which is increased by UUO, is anticipated to be reduced by treatment with peptide conjugates, aromatic-cationic peptides, or SPN10(s) (with or without aromatic-cationic peptides).
Rats will then be sacrificed, kidneys removed, embedded in paraffin and sectioned. To quantify nuclei with fragmented DNA, TUNEL assay will be performed with in situ TUNEL kit. Slides will be developed with DAB and counterstained with 10% hematoxylin. […] It is anticipated that there will be a significant increase in apoptotic cells observed in the obstructed kidney from saline-treated animals when compared to the contralateral unobstructed control.
Macrophage infiltration and interstitial fibrosis are anticipated to be prevented by treatment with peptide conjugates, aromatic-cationic peptides, or SPN10(s) (alone or in combination with aromatic-cationic peptides). Rats will be treated with either saline (n=6), peptide conjugates (1 mg/kg i.p., n=6), aromatic-cationic peptides (e.g., an equivalent molar dose of aromatic-cationic peptide based on the concentration of the aromatic-cationic peptide administered in the peptide conjugate treatment group), SPN10(s) (e.g., an equivalent molar dose of SPN10 based on the concentration of SPN10 administered in the peptide conjugate treatment group) or SPN10(s) in combination with aromatic-cationic peptides (e.g., an equivalent molar dose of SPN10 based on the concentration of SPN10 administered in the peptide conjugate treatment group and an equivalent molar dose of aromatic-cationic peptide based on the concentration of aromatic-cationic peptide administered in the peptide conjugate treatment group) one day prior to induction of UUO, and once daily for 14 days after UUO. Rats will then be sacrificed, the kidneys removed, embedded in paraffin and sectioned. Slides will be treated with monoclonal antibody for ED1 macrophage (1:75; Serotec). Horseradish peroxidase-linked rabbit anti-mouse secondary antibody (Dako) will be used for macrophage detection. Sections will then be counterstained with 10% hematoxylin. […]

[2] = tested on: Isolated mouse pancreatic islet cells; experiment: Example 30: oxidative damage in pancreatic islet cells; assay type: cell-based; settings: 25 μM t-BHP
Description: Isolated mouse pancreatic islet cells will be treated with 25 μM t-BHP alone or in the presence of peptide conjugates, aromatic-cationic peptides, or SPN10(s) with or without aromatic-cationic peptides. Mitochondrial membrane potential will be measured by TMRM (red) and reactive oxygen species will be measured by DCF (green) using confocal microscopy.

[3] = tested on: human retinal epithelial cells (HREC); experiment: Example 55: high glucose-induced injury; assay type: cell-based
Description: Methods of HREC culture useful in the studies of the present technology are known. See generally, Li, et al., Clin. Ophthal. Res. 23:20-2 (2005); Premanand, et al., Invest. Ophthalmol. Vis. Sci. 47:2179-84 (2006). Briefly, HREC cells will be cultured under one of these conditions: 1) normal control; 2) 30 mM glucose; 3) 30 mM glucose+peptide conjugates; 4) 30 mM glucose+an aromatic-cationic peptide; 5) 30 mM glucose+SPN10; 6) 30 mM glucose+SPN10+aromatic-cationic peptides. Survival of HRECs in high glucose co-treated with various concentrations of peptide conjugates (10 nM, 100 nM, 1 μM, 10 μM) will be measured by flow cytometry using Annexin V. See generally, Koopman, et al., Blood 84:1415 (1994); Homburg, et al., Blood X5: 532 (1995); Vermes, et al. J. Immunol. Meth. 184:39 (1995); Fadok, et al., J. Immunol. 148:2207 (1992).
The survival of HRECs in high glucose co-treated with peptide conjugates, aromatic-cationic peptides, or SPN10(s) with or without aromatic-cationic peptides will be tested at 24 hours and 48 hours.
It is expected that glucose (30 mmol/L) will induce cytochrome c release from the mitochondria of HRECs. Fixed HRECs will be immunolabeled with a cytochrome c antibody and a mitochondrial specific protein antibody (HSP60).

[4] = tested on: Gαq mice; experiment: Gαq overexpression-induced heart failure; assay type: in vivo, mouse; settings: administered from 12 to 16 weeks of age
Excerpt: It is anticipated that peptide conjugates, aromatic-cationic peptides or SPN10(s) (with or without aromatic-cationic peptides) will partially rescue Gαq overexpression-induced heart failure. Gαq protein is coupled to receptors for catecholamines and Ang II, all of which are known to be key mediators in hypertensive cardiovascular diseases. To extend these observations to a model of chronic catecholamine/Ang II stimulation, a genetic mouse model with cardiac specific overexpression of Gαq will be used, which causes heart failure in mice by 14-16 weeks of age. The Gαq mice in this study will have impairment of systolic function at 16 weeks age, which will be shown by a substantial decline in FS, with enlargement of the LV chamber, impairment of diastolic function indicated by decreased Ea/Aa, and worsening of myocardial performance index (MPI).

N=C(N)NCCC[C@H](NC(=O)[C@@H](N)Cc1c[nH]c2ccccc12)C(=O)N[C@@H](Cc1c[nH]c2ccccc12)C(=O)N[C@@H](CCCCN)C(N)=O [SPN10, H-L-Trp-L-Arg-L-Trp-L-Lys-NH2] (H-WRWK-NH2)
CD36 expression in tubular cells after UUO ([1]; anti-CD36 immunostaining): significant reduction in CD36 expression | HNE staining in obstructed kidney ([1]; compared to saline-treated rats): significantly less HNE staining | tubular dilation after UUO ([1]; one day prior to UUO and once daily for 14 days): Tubular dilation is also anticipated | interstitial fibrosis in obstructed kidney (Masson's trichrome) ([1]; rat, in vivo): significantly less fibrosis | lipid peroxidation in kidney after UUO ([1]; rat, in vivo): reduced | macrophage infiltration in obstructed kidney (ED1) ([1]; rat, in vivo): significantly reduced | number of apoptotic cells in obstructed kidney (TUNEL) ([1]; rat, in vivo): significantly reduced | up-regulation of CD36 associated with tubular cell apoptosis ([1]; rat, in vivo): significantly inhibited | oxidative damage in isolated pancreatic islet cells [2]: protect against oxidative damage | production of ROS ([3]; 30 mM glucose): reduce the production of ROS | survival of HRECs in high glucose (Annexin V) ([3]; 30 mM glucose, 24 hours and 48 hours): significantly improved | glucose-induced release of cytochrome c from mitochondria to cytoplasm ([3]; 30 mmol/L glucose, 24 or 48 hours): prevent or attenuate this effect | loss of mitochondrial membrane potential by high glucose (TMRM) ([3]; 24 or 48 hours): prevent or attenuate this effect | LV chamber enlargement [4]: slightly reduced | systolic function and myocardial performance [4]: significantly ameliorate systolic function and improve myocardial performance
